From ChEMBL document CHEMBL1154097, “Novel 3,3'-diindolylmethane derivatives: synthesis and cytotoxicity, structural characterization in solid state” (Eur J Med Chem, 2009)
Active and inactive are the calls of the source. No cut-off for these calls is given here.

Experiments:
IGROV-1 = assay: Cytotoxicity against human IGROV1 cells; format: functional
PC-3 = assay: Cytotoxicity against human PC3 cells; format: functional
SK-MEL-2 = assay: Cytotoxicity against human SK-MEL-2 cells; format: functional
Malme-3M = assay: Cytotoxicity against human MALME-3M cells at 10 uM; format: functional, cell-based
UO-31 = assay: Cytotoxicity against human UO31 cells; format: functional

| Structure (SMILES) | Activity (IGROV-1) [%] | Activity (PC-3) [%] | Activity (SK-MEL-2) [%] | Activity (Malme-3M) | Activity (UO-31) [%] |
| --- | --- | --- | --- | --- | --- |
| Fc1cc(F)cc(C(c2c[nH]c3ccccc23)c2c[nH]c3ccccc23)c1 | -6.52 | 67.07 | 58.84 | Active | 52.86 |
| COc1ccc2[nH]cc(C(c3cc(F)cc(F)c3)c3c[nH]c4ccc(OC)cc34)c2c1 | -7.1 | 50.16 | 62.49 | Active | 43.23 |
